*1 amine or outer side, *2 acyl side, *3 side chain or, on linkers, in order; H or OH if unused. Where a SMILES comes first, the peptide text is derived from it. CO = O=C([*:1])[*:2]
T1: papain (Carica papaya, UniProt P00784)
T1 construct: purchased Sigma Chemical Company (St. Louis, Mo.)
T1 sequence (P00784 134-345): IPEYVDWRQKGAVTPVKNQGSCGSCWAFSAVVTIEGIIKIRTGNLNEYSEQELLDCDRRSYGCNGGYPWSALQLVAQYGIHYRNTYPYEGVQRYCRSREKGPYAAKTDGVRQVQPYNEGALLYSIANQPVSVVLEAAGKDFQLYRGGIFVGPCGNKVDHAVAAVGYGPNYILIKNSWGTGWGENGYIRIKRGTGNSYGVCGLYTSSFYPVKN


What was measured:
papain = biological target: T1, papain; assay: Inhibition of papain esterolytic activity by antipain and leupeptin (BAEE substrate, pH stat); assay type: biochemical; conditions: for effect of the presence of IgG substrate on inhibitory activity: 10 mg of human IgG present; for time to inhibit 100% of papain activity: inhibitor 0.4 mg/ml; for Time: time to the stated inhibition
Method: (§1) Papain activity was assayed using N-benzoyl-L-arginine ethyl ester in a pH stat and pepsin activity using hemoglobin substrate, according to the procedures given in the Worthington Enzyme Manual.
The ability of antipain and leupeptin to modify papain activity was checked with enzyme, both in the absence and in the presence of immunoglobulin substrate. A 0.5 mg aliquot of active papain was made up in the presence and in the absence of 10 mg of human IgG in 0.025M sodium phosphate buffer containing 10 mM EDTA and 50 mM cysteine (pH 6.2). To each sample, different amounts of either antipain or leupeptin were added and then incubated at 23° C. for 5 minutes. An aliquot of this enzyme was diluted in the same buffer and assayed for papain activity using BAEE as the substrate in the pH stat.

[1] = Papain activity assay using N-benzoyl-L-arginine ethyl ester in a pH stat; assay type: biochemical; conditions: BAEE substrate
Method: as §1

human IgG = assay: Digestion of IgG to F(ab) by papain; assay type: biochemical
Method: Typically, 10 mg of IgG in the papain digestion buffer (0,025M sodium phosphate, 10 mM EDTA, 50 mM cysteine, pH 6.2) was added to either 0.5 ml of activated immobilized papain (0.5 mg equivalent of free papain) or 0.5 mg of activated soluble papain in the digestion buffer. The proteolytic cleavage was carried out for various time intervals at 37° C. At the end of each incubation period, the immobilized papain sample was centrifuged to remove the protease and the supernatant transferred to another tube containing 0.5 ml of pH 8.5 buffer. The gel was washed once with 1 ml of pH 8.5 buffer and supernatants combined. In the case of soluble papain, 0.4 mg of antipain or leupeptin in water was added to inactivate the papain and the mixture diluted with 0.5 ml of pH 8.5 buffer.
The separation of inactivated papain from the rest of mixture was carried by one of two methods. According to one procedure, an excess of anti-papain IgG (3 mg) was added to complex with the inactivated papain and the Fab fragments were separated from the rest of the mixture by passing through a 1 ml protein A cartridge equilibrated with pH 8.5 buffer. This procedure removed both the protease and its antibody in the form of antigen-antibody complexes. The column was eluted with 5 ml of pH 8.5 buffer to collect the F(ab) fragments and the absorbance of the various fractions was read at 280 nm. In an alternative procedure, the reaction mixture was first passed through an immobilized column of antipapain IgG to remove the inactivated papain and then passed through a 1 ml protein A cartridge equilibrated with pH 8.5 buffer. The Fc and the undigested immunoglobulins were eluted from the protein A cartridge with an elution buffer (pH 3.5).
After 30 minutes incubation at 37° C., 0.4 mg of antipain was added to inactivate the enzyme and then 0.5 ml of pH 8.5 buffer added to the mixture. […] The effluent was passed through a protein A column to adsorb the Fc and the undigested IgG. The F(ab) fragments came out unabsorbed from the protein A column. […]

avidin-agarose = assay: Binding of biotinylated papain to avidin-agarose column; conditions: 0.5 mg through a 1 ml column, pH 8.5 buffer
Description: The column was eluted with a pH 8.5 buffer and the absorbance of the eluting fractions were monitored at 280 nm.

[2] = read-out: inhibition of papain activity
[3] = PAPAIN (0.5 mg) + IgG (10 mg), inhibitor 0.4 mg
[4] = PAPAIN (0.5 mg), inhibitor 0.2 mg
[5] = PAPAIN (0.5 mg), inhibitor 0.4 mg

Row | Molecule | effect of the presence of IgG substrate on inhibitory activity (papain) | time to inhibit 100% of papain activity (papain) [min] | inhibition at 400 µg/mL (papain; [2]) [%] | Time (papain; PAPAIN (0.5 mg) + IgG (10 mg), inhibitor 0.2 mg) [min] | Time (papain; [3]) [min] | Time (papain; [4]) [min] | Time (papain; [5]) [min] | time to achieve 100% inhibition of papain activity (papain; inhibitor 0.05 mg/ml) [min] | inhibition at 50 µg/mL (papain; [2]) [%] | Time (papain; PAPAIN (0.5 mg) + IgG (10 mg), inhibitor 0.05 mg) [min] | Time (papain; PAPAIN (0.5 mg) + IgG (10 mg), inhibitor 0.1 mg) [min] | Time (papain; PAPAIN (0.5 mg), inhibitor 0.05 mg) [min] | Time (papain; PAPAIN (0.5 mg), inhibitor 0.1 mg) [min] | Activity (Unit/mg) [1] [Unit/mg] | % Fab Generated (human IgG; 10 mg IgG, 0.5 mg enzyme, 37° C., 30 minutes) [%] | amount of F(ab) obtained relative to the immobilized form of the enzyme (human IgG; first 30 minutes) | digestion of the total IgG added to F(ab) (human IgG; human IgG, within the first 30 minutes, 37° C.) [%] | % Binding to Avidin-Agarose (avidin-agarose) [%]
1 | CC(=O)N[C@@H](CC(C)C)C(=O)N[C@@H](CC(C)C)C(=O)N[C@H](C=O)CCCNC(=N)N [LEUPEPTIN, Leupeptin] | did not affect | ≤ 1 | 100 | < 1 | < 1 | < 1 | < 1 | – | – | – | – | – | – | – | – | – | – | –
2 | CC(C)[C@H](NC(=O)[C@H](CCCNC(=N)N)NC(=O)N[C@@H](Cc1ccccc1)C(=O)O)C(=O)N[C@H](C=O)CCCNC(=N)N [ANTIPAIN, Antipain] ({Phe-CO}-Arg-Val-Arg-aldehyde) | did not affect | ≤ 1 | 100 | – | 1 | 1 | 1 | ≤ 15 | 100 | 15 | 4 | 15 | 4 | – | – | – | – | –
3 | Papain: soluble protease from Sigma used to digest IgG to F(ab) (protein, UniProt P00784 134-345, looked up) Papain: IPEYVDWRQKGAVTPVKNQGSCGSCWAFSAVVTIEGIIKIRTGNLNEYSEQELLDCDRRSYGCNGGYPWSALQLVAQYGIHYRNTYPYEGVQRYCRSREKGPYAAKTDGVRQVQPYNEGALLYSIANQPVSVVLEAAGKDFQLYRGGIFVGPCGNKVDHAVAAVGYGPNYILIKNSWGTGWGENGYIRIKRGTGNSYGVCGLYTSSFYPVKN | – | – | – | – | – | – | – | – | – | – | – | – | – | 7.8 | 75 | double | 75 | 0

Source: patent US5328834A, “Method for preparing immunoglobulin fragments” (UniSyn Technologies, Inc., priority 1989, dated 1994)
